{
  "source": "patent US12690589B2",
  "about": "“Herbicidal compositions comprising pyroxasulfone” (BASF SE, priority 2024, dated 2026)",
  "experiment_in_all_cases": "Post-emergence application in field trials, herbicidal activity (damage scale 0 to 100%)",
  "format_in_all_cases": "in vivo",
  "key": {"[1]": {"system": "Digitaria sanguinalis (DIGSA)", "protocol": "(§1) In the examples below, using the method of S. R. Colby (1967) “Calculating synergistic and antagonistic responses of herbicide combinations”, Weeds 15, p. 22ff., the value E, which is expected if the activity of the individual active compounds is only additive, was calculated:\n(§2) [formula] • wherein • X=percent activity using active herbicide A at an application rate a; • Y=percent activity using active herbicide B (e.g. pyroxasulfone) at an application rate b; • E=expected activity (in %) by A+B at application rates a+b.\n(§3) For 3-component mixtures the synergistic response was calculated as described in: Ferry, Nancy; Stanley, Bruce H.; and Armel, Gregory (2005). “DESIGN AND ANALYSIS OF BIOLOGICAL ASSAYS OF MIXTURES,” Conference on Applied Statistics in Agriculture. https://doi.org/10.4148/2475-7772.1133. According to this publication, the Colby calculation can be generalized to a third mixing partner, Z, employing the following formula: […]\n(§4) If the value found experimentally is higher than the value E calculated according to Colby, a synergistic effect is present.\n(§5) On field test sites, natural weed infestation or seeded weeds were treated post-emergence of the weeds.\n(§6) In the field trials, the weeds were treated as indicated below.\n(§7) In the following experiments, the herbicidal activity for the individual herbicidal compositions (solo and mixture applications) was assessed at the indicated days after treatment (DAT). The assessments for the damage on undesired weeds caused by the composition was carried out using a scale from 0 to 100%, compared to the untreated control plants. Here, 0 means no damage and 100 means complete destruction of the plants.\n(§8) Herbicide A-1 (342 g/l) and pyroxasulfone (500 g/l) were, together with addition of 0.25 v/v % MSO (methylated seed oil) as adjuvant, formulated in 200 l/ha water as distribution medium and sprayed with commercial flat fan nozzles.\n(§9) Herbicide A-1 (342 g/l), pyroxasulfone (500 g/l) and trifludimoxazin (500 g/l) were, together with addition of 0.25 v/v % MSO (methylated seed oil) as adjuvant, formulated in 200 l/ha water as distribution medium and sprayed with commercial flat fan nozzles.\n(§10) Herbicide A-1 (342 g/I), pyroxasulfone (500 g/l) and glyphosate-isopropylammonium (356 g/l) were, together with addition of 0.25 v/v % MSO (methylated seed oil) as adjuvant, formulated in 200 l/ha water as distribution medium and sprayed with commercial flat fan nozzles.\n(§11) Herbicide A-1 (342 g/l), pyroxasulfone (500 g/l) and glufosinate-P-ammonium (211 g/l) were, together with addition of 0.25 v/v % MSO (methylated seed oil) as adjuvant, formulated in 200 l/ha water as distribution medium and sprayed with commercial flat fan nozzles.\n(§12) Herbicide A-1 (342 g/l), pyroxasulfone (500 g/l) and 2,4-D-choline (456 g/l) were, together with addition of 0.25 v/v % MSO (methylated seed oil) as adjuvant, formulated in 200 l/ha water as distribution medium and sprayed with commercial flat fan nozzles."}, "[2]": {"system": "Lolium multiflorum (LOLMU)", "protocol": "as §1, §2, §3, §4, §5, §6, §7, §8, §9, §10, §11, §12"}, "[3]": {"system": "Amaranthus retroflexus (AMARE)", "protocol": "as §1, §2, §3, §4, §5, §6, §7, §8, §9, §10, §11, §12"}},
  "note": "“And” between values parts separate entries of the source, which are not always exact repeats. Identical values can stand only once.",
  "data": [
    {"smiles": "CCOC(=O)COc1ccccc1Oc1nc(-n2c(=O)cc(C(F)(F)F)n(C)c2=O)c(F)cc1Cl", "note": "[A-1, ethyl 2-[2-[[3-chloro-5-fluoro-6-[3-methyl-2,6-dioxo-4-(trifluoromethyl)pyrimidin-1-yl]-2-pyridyl]oxy]phenoxy]acetate]", "values": [
      {"measurement": "% Herbicidal activity", "setting": "[1]; 7 DAT, stage 22, height 10-15 cm, g ai/ha A-1 18, B 70, C-4 12.5", "value": 85, "unit": "%"},
      {"measurement": "% Herbicidal activity", "setting": "[1]; 7 DAT, stage 22, height 10-15 cm, g ai/ha A-1 18, B 70, C-8 840", "value": 80, "unit": "%"},
      {"measurement": "% Herbicidal activity", "setting": "[1]; 7 DAT, stage 22, height 10-15 cm, g ai/ha A-1 18, B 70, C-12 252", "value": 85, "unit": "%"},
      {"measurement": "% Herbicidal activity", "setting": "[1]; 7 DAT, stage 22, height 10-15 cm, g ai/ha A-1 18, B 90, C-4 12.5", "value": 85, "unit": "%"},
      {"measurement": "% Herbicidal activity", "setting": "[1]; 7 DAT, stage 22, height 10-15 cm, g ai/ha A-1 18, B 90, C-8 840", "value": 80, "unit": "%"},
      {"measurement": "% Herbicidal activity", "setting": "[1]; 7 DAT, stage 22, height 10-15 cm, g ai/ha A-1 18, B 90, C-12 252", "value": 85, "unit": "%"},
      {"measurement": "% Herbicidal activity", "setting": "[1]; 21 DAT, stage 22, height 10-15 cm, g ai/ha A-1 12.5, B 70, C-4 12.5", "value": 70, "unit": "%"},
      {"measurement": "% Herbicidal activity", "setting": "[1]; 21 DAT, stage 22, height 10-15 cm, g ai/ha A-1 18, B 70, C-4 12.5", "value": 80, "unit": "%"},
      {"measurement": "% Herbicidal activity", "setting": "[1]; 21 DAT, stage 22, height 10-15 cm, g ai/ha A-1 18, B 70, C-12 252", "value": 85, "unit": "%"},
      {"measurement": "% Herbicidal activity", "setting": "[1]; 21 DAT, stage 22, height 10-15 cm, g ai/ha A-1 18, B 90, C-4 12.5", "value": 80, "unit": "%"},
      {"measurement": "% Herbicidal activity", "setting": "[1]; 21 DAT, stage 22, height 10-15 cm, g ai/ha A-1 18, B 90, C-12 252", "value": 85, "unit": "%"},
      {"measurement": "% Herbicidal activity", "setting": "[1]; 42 DAT, stage 22, height 10-15 cm, g ai/ha A-1 12.5, B 70", "value": 65, "unit": "%"},
      {"measurement": "% Herbicidal activity", "setting": "[1]; 42 DAT, stage 22, height 10-15 cm, g ai/ha A-1 12.5, B 70, C-4 12.5", "value": 60, "unit": "%"},
      {"measurement": "% Herbicidal activity", "setting": "[1]; 42 DAT, stage 22, height 10-15 cm, g ai/ha A-1 18, B 70", "value": 80, "unit": "%"},
      {"measurement": "% Herbicidal activity", "setting": "[1]; 42 DAT, stage 22, height 10-15 cm, g ai/ha A-1 18, B 70, C-4 12.5", "value": 70, "unit": "%"},
      {"measurement": "% Herbicidal activity", "setting": "[1]; 42 DAT, stage 22, height 10-15 cm, g ai/ha A-1 18, B 70, C-12 252", "value": 70, "unit": "%"},
      {"measurement": "% Herbicidal activity", "setting": "[1]; 42 DAT, stage 22, height 10-15 cm, g ai/ha A-1 18, B 90", "value": 80, "unit": "%"},
      {"measurement": "% Herbicidal activity", "setting": "[1]; 42 DAT, stage 22, height 10-15 cm, g ai/ha A-1 18, B 90, C-4 12.5", "value": 70, "unit": "%"},
      {"measurement": "% Herbicidal activity", "setting": "[1]; 42 DAT, stage 22, height 10-15 cm, g ai/ha A-1 18, B 90, C-12 252", "value": 70, "unit": "%"},
      {"measurement": "% Herbicidal activity", "setting": "[1]; DIGSA, growth stage 22, height 10-15 cm, A-1 12.5 g ai/ha, 7 DAT, Table 4.1", "value": 80, "unit": "%"},
      {"measurement": "% Herbicidal activity", "setting": "[1]; DIGSA, growth stage 22, height 10-15 cm, A-1 12.5 g ai/ha, 21 DAT, Table 4.3", "value": 70, "unit": "%"},
      {"measurement": "% Herbicidal activity", "setting": "[1]; DIGSA, growth stage 22, height 10-15 cm, A-1 18 g ai/ha, 7 DAT, Table 4.1", "value": 80, "unit": "%"},
      {"measurement": "% Herbicidal activity", "setting": "[1]; DIGSA, growth stage 22, height 10-15 cm, A-1 18 g ai/ha, 21 DAT, Table 4.3", "value": 80, "unit": "%"},
      {"measurement": "% Herbicidal activity", "setting": "[1]; Table 8.1, 7 DAT, stage 22, height 10-15 cm, g ai/ha A-1 18, B 70, C-12 1066", "value": 80, "unit": "%"},
      {"measurement": "% Herbicidal activity", "setting": "[1]; Table 8.2, 21 DAT, stage 22, height 10-15 cm, g ai/ha A-1 18, B 70, C-12 1066", "value": 80, "unit": "%"},
      {"measurement": "% Herbicidal activity", "setting": "[1]; Table 8.4, 42 DAT, stage 22, height 10-15 cm, g ai/ha A-1 18, B 70, C-12 1066", "value": 60, "unit": "%"},
      {"measurement": "% Herbicidal activity", "setting": "[2]; 7 DAT, stage 22-25, height 20-25 cm, g ai/ha A-1 12.5, B 70, C-12 252", "value": 60, "unit": "%"},
      {"measurement": "% Herbicidal activity", "setting": "[2]; 7 DAT, stage 22-25, height 20-25 cm, g ai/ha A-1 18, B 70, C-12 252", "value": 60, "unit": "%"},
      {"measurement": "% Herbicidal activity", "setting": "[2]; 7 DAT, stage 22-25, height 20-25 cm, g ai/ha A-1 18, B 90, C-12 252", "value": 60, "unit": "%"},
      {"measurement": "% Herbicidal activity", "setting": "[2]; 21 DAT, stage 22-25, height 20-25 cm, g ai/ha A-1 12.5, B 70, C-12 252", "value": 40, "unit": "%"},
      {"measurement": "% Herbicidal activity", "setting": "[2]; 21 DAT, stage 22-25, height 20-25 cm, g ai/ha A-1 18, B 70, C-12 252", "value": 40, "unit": "%"},
      {"measurement": "% Herbicidal activity", "setting": "[2]; 21 DAT, stage 22-25, height 20-25 cm, g ai/ha A-1 18, B 90, C-12 252", "value": 40, "unit": "%"},
      {"measurement": "% Herbicidal activity", "setting": "[2]; 28 DAT, stage 22-25, height 20-25 cm, g ai/ha A-1 12.5, B 70, C-12 252", "value": 40, "unit": "%"},
      {"measurement": "% Herbicidal activity", "setting": "[2]; 28 DAT, stage 22-25, height 20-25 cm, g ai/ha A-1 18, B 70, C-12 252", "value": 40, "unit": "%"},
      {"measurement": "% Herbicidal activity", "setting": "[2]; 28 DAT, stage 22-25, height 20-25 cm, g ai/ha A-1 18, B 90, C-12 252", "value": 40, "unit": "%"},
      {"measurement": "% Herbicidal activity", "setting": "[2]; LOLMU, growth stage 22-25, height 20-25 cm, A-1 18 g ai/ha, 7 DAT, Table 4.2", "value": 60, "unit": "%"},
      {"measurement": "% Herbicidal activity", "setting": "[2]; LOLMU, growth stage 22-25, height 20-25 cm, A-1 18 g ai/ha, 21 DAT, Table 4.4", "value": 60, "unit": "%"},
      {"measurement": "% Herbicidal activity", "setting": "[3]; 7 DAT, stage 31-49, height 10-12 cm, g ai/ha A-1 12.5, B 70, C-4 12.5", "value": 80, "unit": "%"},
      {"measurement": "% Herbicidal activity", "setting": "[3]; 21 DAT, stage 31-49, height 10-12 cm, g ai/ha A-1 18, B 70, C-12 252", "value": 80, "unit": "%"},
      {"measurement": "% Herbicidal activity", "setting": "[3]; 21 DAT, stage 31-49, height 10-12 cm, g ai/ha A-1 18, B 90, C-12 252", "value": 80, "unit": "%"},
      {"measurement": "% Herbicidal activity", "setting": "[3]; 42 DAT, stage 31-49, height 10-12 cm, g ai/ha A-1 12.5, B 70, C-4 12.5", "value": 80, "unit": "%"},
      {"measurement": "% Herbicidal activity", "setting": "[3]; 42 DAT, stage 31-49, height 10-12 cm, g ai/ha A-1 18, B 70", "value": 90, "unit": "%"},
      {"measurement": "% Herbicidal activity", "setting": "[3]; 42 DAT, stage 31-49, height 10-12 cm, g ai/ha A-1 18, B 70, C-4 12.5", "value": 85, "unit": "%"},
      {"measurement": "% Herbicidal activity", "setting": "[3]; 42 DAT, stage 31-49, height 10-12 cm, g ai/ha A-1 18, B 90, C-4 12.5", "value": 85, "unit": "%"},
      {"measurement": "% Herbicidal activity", "setting": "[3]; AMARE, growth stage 31-49, height 10-12 cm, A-1 12.5 g ai/ha, 7 DAT, Table 4.1", "value": 80, "unit": "%"},
      {"measurement": "% Herbicidal activity", "setting": "[3]; AMARE, growth stage 31-49, height 10-12 cm, A-1 12.5 g ai/ha, 21 DAT, Table 4.3", "value": 90, "unit": "%"},
      {"measurement": "% Herbicidal activity", "setting": "[3]; AMARE, growth stage 31-49, height 10-12 cm, A-1 18 g ai/ha, 7 DAT, Table 4.1", "value": "80% and 93%"},
      {"measurement": "% Herbicidal activity", "setting": "[3]; AMARE, growth stage 31-49, height 10-12 cm, A-1 18 g ai/ha, 21 DAT, Table 4.3", "value": "80% and 92%"}
    ]}
  ]
}
